Measurements taken from patent US20230183640A1, “METABOLIC INHIBITORS WITH EFFICACY FOR INHIBITING SULFIDE PRODUCTION IN HARSH ENVIRONMENTS” (MC (US) 3 LLC, priority 2020, published 2023).

How the values were obtained:
[1] = tested on: Desulfovibrio longus 51456; test: H2S and Log (Growth) efficacy against SRB, 96-Well Plate Method; format: cell-based
Description: (§1) A lyophilized Desulfovibrio alaskensis 14563, Desulfovibrio longus 51456, and Desulfovibrio gabonensis 700201 pure cultures received from ATCC were resuspended individually in 500 ul of MB 1250. Aseptically, the content was transferred to a 5-mL tube of MB1250 medium. The cultures were incubated in an anaerobic chamber at 30° C. for 72 hrs. Subsequently, an individual stock culture with a final concentration of 25% glycerol were prepared by adding equal volumes of culture and 50% glycerol. 1 ml of the cultures were then transferred to 2-ml cryogenic vials and stored at −80° C. The purity of the stock cultures was evaluated through PCR, by amplifying the 16S rDNA region, and thus, it was verified that the original ATCC sample was a pure culture. 48-hour cultures of ATCC Desulfovibrio alaskensis 14563, Desulfovibrio longus 51456, and Desulfovibrio gabonensis 700201 were prepared in an anaerobic chamber. Each culture was prepared as a 1:10 culture by taking 1 milliliter (mL) of a pure culture and inoculating 9 milliliters (mL) of fresh MB1250 media. The Desulfovibrio alaskensis 14563 and Desulfovibrio gabonensis 700201 were all grown at 30° C. and the Desulfovibrio longus 51456 culture was grown at 35° C.
(§2) After the 48-hour incubation, 600 microliters (μL) were taken from each culture and optical density (OD) was measured using a Thermofisher Spectronic 200 Spectrophotometer at 600 nm. Each culture was diluted to 0.05 OD600 in fresh MB1250 media and added to the 96 well plates. Edge wells were not used due to their inherent variability and evaporation of the media. Each of the components were added at their respective concentrations for a final volume of 500 μL per well. In Table 3, 6 and 7, the concentrations of the compound used for the experiments are listed. Each experiment was done with at least three replicates for different treatments and non-treatment controls. From these test plates, 200 μL were taken and placed into two separate plates for 3 and 6 days. Plates were then sealed with a titer-top and placed into anaerobic boxes and incubated in an anaerobic incubator at 30° C.
(§3) At each time point, sulfide samples were taken, and enumeration plates were made. Enumeration plates were made to determine the log growth in each dosed sample. For this process, enumeration plates were prepared by adding 180 μL fresh media MB1250 containing 0.01 wt % ferrous ammonium sulfate. 20 μL was taken from each well of the challenge plates and transferred to the enumeration plates using a 20-200 μL multichannel pipette. Enumeration plates were mixed three times using the multichannel pipette and serial diluted down the plate tenfold (20 μL into 180 μL). This serial dilution process was repeated for all challenge plate rows giving a total of 6 enumeration plates.
(§4) After 7 days these enumeration plates were read. The ferrous ammonium sulfate in each plate would be converted to iron sulfide, changing wells with SRB growth from clear to black. By counting the number of black wells in a row, the log growth from the original well in the challenge plate can be determined.
(§5) To determine hydrogen sulfide production in each sample, sulfide samples were also taken from each challenge plate. From each well, 9 μL were taken and added to 60 μL of 2% zinc acetate with 0.02% acetic acid. Then, 180 μL of milliQ water was added. 60 μL of stock solution 1 containing 64% sulfuric acid, <1% Dimethyl-4-phenylenediamine (DMPD), water to 100% was added to each well on the plates. This was followed by 3 μL of stock solution 3 containing 50% Iron (III) chloride. All chemicals are ordered from Fisher Scientific and used as received. These were mixed three times and read after 15 minutes. The plates were read at 670 nm using a Biotek microplate reader. Absorbance readings were converted to mM using a standard curve and this was converted to parts per million using the molar mass of sulfur. […]

[2] = tested on: Desulfovibrio gabonensis 700201; test: as above; format: cell-based
Description: as §1, §2, §3, §4, §5

## O=C(CN1C(=O)c2cccc3cccc(c23)C1=O)NO [C1]
[1]; 3 days, 6.4 PPM
  H2S: 9.8 PPM
  Log (Growth): 0.0
[1]; 3 days, 12.8 PPM
  H2S: 9.3 PPM
  Log (Growth): 0.0
[1]; 3 days, 25.6 PPM
  H2S: 9.1 PPM
  Log (Growth): 0.0
[1]; 3 days, 51.3 PPM
  H2S: 8.8 PPM
  Log (Growth): 0.0
[1]; 3 days, 102.5 PPM
  H2S: 8.6 PPM
  Log (Growth): 0.0
[1]; 3 days, 205.0 PPM
  H2S: 8.7 PPM
  Log (Growth): 0.0
[1]; 6 days, 6.4 PPM
  H2S: 8.1 PPM
  Log (Growth): 0.0
[1]; 6 days, 12.8 PPM
  H2S: 7.9 PPM
  Log (Growth): 0.0
[1]; 6 days, 25.6 PPM
  H2S: 7.3 PPM
  Log (Growth): 0.0
[1]; 6 days, 51.3 PPM
  H2S: 7.2 PPM
  Log (Growth): 0.0
[1]; 6 days, 102.5 PPM
  H2S: 7.5 PPM
  Log (Growth): 0.0
[1]; 6 days, 205.0 PPM
  H2S: 8.1 PPM
  Log (Growth): 0.0
[2]; 3 days, 6.4 PPM
  H2S: 12.4 PPM
  Log (Growth): 0.0
[2]; 3 days, 12.8 PPM
  H2S: 12.1 PPM
  Log (Growth): 0.0
[2]; 3 days, 25.6 PPM
  H2S: 11.1 PPM
  Log (Growth): 0.0
[2]; 3 days, 51.3 PPM
  H2S: 12.3 PPM
  Log (Growth): 0.0
[2]; 3 days, 102.5 PPM
  H2S: 10.5 PPM
  Log (Growth): 0.0
[2]; 3 days, 205.0 PPM
  H2S: 10.0 PPM
  Log (Growth): 0.0
[2]; 6 days, 6.4 PPM
  H2S: 18.1 PPM
  Log (Growth): 0.0
[2]; 6 days, 12.8 PPM
  H2S: 10.4 PPM
  Log (Growth): 0.0
[2]; 6 days, 25.6 PPM
  H2S: 9.4 PPM
  Log (Growth): 0.0
[2]; 6 days, 51.3 PPM
  H2S: 8.4 PPM
  Log (Growth): 0.0
[2]; 6 days, 102.5 PPM
  H2S: 8.6 PPM
  Log (Growth): 0.0
[2]; 6 days, 205.0 PPM
  H2S: 8.5 PPM
  Log (Growth): 0.0
